{"source": "patent US10059733B2", "about": "(NUCORION PHARMACEUTICALS, INC., priority 2014, dated 2018)", "key": {"[1]": {"assay": "TC50 assay in Huh7 cells, 48 h (CellTiter 96)", "settings": "human", "experimental": "(§1) Huh7 cells were maintained at 37° C. in a humidified atmosphere at 5% CO2 in DMEM containing 10% FBS. […] The cells were then treated with each compound at concentrations ranging from 500 μM to 0 μM in triplicate in DMEM media containing 2% FBS and 0.5% DMSO and without phenol red. After 48 h of treatment at 37° C., the relative number of living cells in each well was determined by using the CellTiter 96 system (Promega) according to the manufacturer's instructions. The 3-(4,5-dimethylthiazol-2-yl)-5-(3-carboxymethoxyphenyl)-2-(4-sulfophenyl)-2H-tetrazolium (MTS) and phenazine methosulfate (PMS) reagents were added to each well of the 96-well plate and the plate was incubated at 37° C. for approximately 2 h. The absorbance at 490 nm and 650 nm in each well was then determined by using a Flexstation 3 microplate reader ([…]). The absorbance determined at 650 nm was then subtracted from the absorbance determined at 490 nm to correct for light scattering. The corrected absorbance values representing the relative number of live cells in each condition were then plotted as a function of compound concentration, and the data were then fit to the following sigmoidal Emax equation by using Kaleidagraph: y=(Emax*x^Slope)/(TC50^Slope+x^Slope) where y is the relative corrected absorbance value, Emax is the maximum relative inhibition, x is the compound concentration, TC50 is the concentration of the compound at which the total cell population is reduced by 50%, and Slope is the slope of the curve.\nThe data in Table 1 were determined for cells exposed to drug for 48 h. The IC50 is the concentration of each compound necessary to inhibit the replication of the HCV luciferase replicon to 50%. “TC50,” refers to toxic concentration necessary to reduce the cell population by 50%. All compounds were purified by HPLC."}, "[2]": {"assay": "Tolerability of single oral dosage in HCV-infected chimpanzees", "format": "in vivo, chimpanzee", "settings": "single oral dosage 200 mg", "experimental": "(§2) Via oral gavage, two HCV-infected chimpanzees I (male, 56.49 kg and 11 years old; genotype 1b HCV) and II (male, 61.91 kg and 34 years old; genotype 1a HCV) each received a single dosage of 200 mg of Compound 1 in Formulation I while the HCV-infected chimpanzee III (male, 56.19 kg and 18 years old; genotype 1a HCV) was administered a single dosage of 260 mg of the non-phosphorylated analog of Compound 1 (Table 1) in Formulation I. After 12 hours, the HCV viral titer decreased from 24,100 to 10,200 IU/ml (or 58% drop) in Chimpanzee I, from 38,500 to 27,000 IU/ml (or 30% drop) in Chimpanzee II, and from 154,000 to 142,000 IU/ml (or 8% drop) in Chimpanzee III. […] All animals were fasted overnight prior to dosing and a minimum of 2 hours prior to scheduled blood sample collections. Viral load determinations were performed on plasma samples using the HCV TaqMan assay (COBAS® AmpliPrep/COBAS® TaqMan® HCV Test, Version 2, Test Code 1220) for quantitative analysis. […] There were no adverse effects, illness, nor distress seen with the three chimpanzees during the study requiring veterinarian intervention."}, "genotype 1a HCV": {"system": "genotype 1a HCV", "assay": "Oral administration to HCV-infected chimpanzees, viral load (genotype 1a)", "format": "in vivo, chimpanzee", "experimental": "as §2"}, "RPK9 cells": {"system": "RPK9 cells", "assay": "TC50 assay in gemcitabine resistant (dCK deficient) RPK9 cells, 48 h", "settings": "read-out: TC50 (μM) in RPK9 cells at 48 hr", "experimental": "as §1\n(§3) PK9 and RPK9 cells were maintained at 37° C. in a humidified atmosphere at 5% CO2 in Roswell Park Memorial Institute (RPMI) media containing 10% FBS. […] The cells were then treated with each compound at concentrations ranging from […] to 0 μM in triplicate in RPMI media containing 2% FBS and 0.5% DMSO and without phenol red. […] The RPK9 cells were derived from the parental PK9 cell line, and are deficient for dCK activity due to the partial deletion of the dCK gene."}, "PK9 cells": {"system": "PK9 cells", "assay": "TC50 assay in PK9 cells, 48 h", "settings": "Homo sapiens, PK9, 48 h, read-out: TC50 (μM) in PK9 cells at 48 hr", "experimental": "as §1, §3"}, "[3]": {"assay": "pH stability in aqueous buffer (HPLC/uv)", "experimental": "In order for a prodrug to be orally bioavailable, it must be stable over a wide range of pH values. […] The relative amount of intact prodrug was then determined by first separating the intact prodrug from any potential degradation products by using reverse-phase high performance liquid chromatography (HPLC) and subsequently quantifying the relative amount of remaining prodrug by uv spectrophotometry."}, "BxPC3": {"system": "BxPC3", "assay": "TC50 assay with human cancer cell lines, 96 h: BxPC3", "format": "cell-based", "settings": "BXPC-3, 96 h, read-out: TC50 BxPC3 (μM)", "method": "(§4) Huh7 cells were maintained at 37° C. in a humidified atmosphere at 5% CO2 in DMEM containing 10% FBS. […] The cells were then treated with each compound at concentrations ranging from 500 μM to 0 μM in triplicate in DMEM media containing 2% FBS and 0.5% DMSO and without phenol red. After 48 h of treatment at 37° C., the relative number of living cells in each well was determined by using the CellTiter 96 system (Promega) according to the manufacturer's instructions. The 3-(4,5-dimethylthiazol-2-yl)-5-(3-carboxymethoxyphenyl)-2-(4-sulfophenyl)-2H-tetrazolium (MTS) and phenazine methosulfate (PMS) reagents were added to each well of the 96-well plate and the plate was incubated at 37° C. for approximately 2 h. The absorbance at 490 nm and 650 nm in each well was then determined by using a Flexstation 3 microplate reader (Molecular Dynamics). The absorbance determined at 650 nm was then subtracted from the absorbance determined at 490 nm to correct for light scattering. The corrected absorbance values representing the relative number of live cells in each condition were then plotted as a function of compound concentration, and the data were then fit to the following sigmoidal Emax equation by using Kaleidagraph: y=(Emax*x^Slope)/(TC50^Slope+x^Slope) where y is the relative corrected absorbance value, Emax is the maximum relative inhibition, x is the compound concentration, TC50 is the concentration of the compound at which the total cell population is reduced by 50%, and Slope is the slope of the curve.\n(§5) Huh7, HEPG2, HEK293, MCF-7 and BxPC3 cell lines were maintained at 37° C. in a humidified atmosphere at 5% CO2 in DMEM containing 10% FBS. […] The cells were then treated with each compound at concentrations ranging from 500 μM to 0 μM in triplicate in DMEM media containing 2% FBS and 0.5% DMSO and without phenol red."}, "[4]": {"assay": "In vivo toxicology assessment in mice", "design": "species or system CD-1 ICR mice", "settings": "oral gavage 20 mg/kg in Formulation I", "experimental": "All in vivo toxicology assays were performed with CD-1 ICR mice (female, 4-6 week old; 20-30 gram body weight). Compound 1 (Table 1) was first dissolved in Formulation I containing 5% dimethyl sulfoxide (DMSO), 20% solutol, 20% PEG 400, and 55% sodium phosphate (50 mM, pH 6.0). Five mice were administered with Compound 1 in Formulation I via oral gavage at a dosage of 20 mg/kg while two other mice were orally treated with Formulation I alone (no inhibitor)."}, "HEK293": {"system": "HEK293", "assay": "TC50 assay with human cancer cell lines, 96 h: HEK293", "format": "cell-based", "settings": "HEK293, 96 h, read-out: TC50 HEK293 (μM)", "method": "as §4, §5"}}, "data": [{"smiles": "CCCC(CCC)C(=O)Nc1ccn([C@@H]2O[C@H](CO[P@@](=O)(N[C@@H](C)C(=O)OC(C)C)Oc3ccccc3)[C@@H](O)C2(F)F)c(=O)n1", "note": "[Compound 1, (S)-isopropyl 2-(((S)-(((2R,3R,5R)-4,4-difluoro-3-hydroxy-5-(2-oxo-4-(2-propylpentanamido)pyrimidin-1(2H)-yl)tetrahydrofuran-2-yl)methoxy)(phenoxy)phosphoryl)amino)propanoate]", "values": [{"measurement": "CC50 at 48 h", "setting": "[1]", "result": "17.4 ± 3.4", "unit": "µM"}, {"measurement": "tolerability", "setting": "[2]", "result": "well tolerated"}, {"measurement": "drop of HCV viral titer after 12 hours", "setting": "genotype 1a HCV; Chimpanzee II, single oral dosage 200 mg", "result": 30, "unit": "%"}, {"measurement": "HCV viral titer after 12 hours", "setting": "genotype 1a HCV; Chimpanzee II, single oral dosage 200 mg in Formulation I, titer before 38,500 IU/ml", "result": "27,000 IU/ml"}, {"measurement": "effectiveness in inhibiting HCV in chimpanzees (comparison)", "setting": "genotype 1a HCV; single oral dosage, 12 hours", "result": "more effective than its non-phosphorylated analog"}, {"measurement": "CC50", "setting": "RPK9 cells", "result": "24.2 ± 6.4", "unit": "µM"}, {"measurement": "CC50", "setting": "PK9 cells", "result": "25.2 ± 13.6", "unit": "µM"}, {"measurement": "% of Compound 1 remaining", "setting": "[3]; Pretreatment", "result": 100, "unit": "%"}, {"measurement": "% of Compound 1 remaining", "setting": "[3]; pH 1, aqueous buffer, 40° C., 4 hours, 200 μM", "result": 58, "unit": "%"}, {"measurement": "% of Compound 1 remaining", "setting": "[3]; pH 2, aqueous buffer, 40° C., 4 hours, 200 μM", "result": 85, "unit": "%"}, {"measurement": "% of Compound 1 remaining", "setting": "[3]; pH 4, aqueous buffer, 40° C., 4 hours, 200 μM", "result": 92, "unit": "%"}, {"measurement": "% of Compound 1 remaining", "setting": "[3]; pH 6, aqueous buffer, 40° C., 4 hours, 200 μM", "result": 100, "unit": "%"}, {"measurement": "% of Compound 1 remaining", "setting": "[3]; pH 8, aqueous buffer, 40° C., 4 hours, 200 μM", "result": 47, "unit": "%"}, {"measurement": "CC50", "setting": "BxPC3", "result": "7.01 ± 0.97", "unit": "µM"}, {"measurement": "internal organs after sacrifice", "setting": "[4]; after Day 7", "result": "healthy with no abnormality"}, {"measurement": "signs of toxicity", "setting": "[4]; seven day period of observation", "result": "no signs of toxicity"}, {"measurement": "CC50", "setting": "HEK293", "result": "4.1 ± 0.5", "unit": "µM"}]}]}
